Measured values taken from patent US20090088403A1, “A3 ADENOSINE RECEPTORS AS TARGETS FOR THE MODULATION OF CENTRAL SEROTONERGIC SIGNALING” (priority 2007, published 2009).

Columns and labels:
Format in all cases: cell-based
[1] = system: SERT; assay: [3H]5-HT transport assay in mouse brain synaptosomes; details: for effect on IB-MECA (10 nM) stimulated 5-HT uptake: inhibitor 10 min before IB-MECA, MRS1191 1 μM, DT-2 1.0 μM, H8 0.1 μM, SB203580 1.0 μM
[2] = system: dopamine transporter; assay: [3H]DA uptake in mouse striatal and midbrain synaptosomes; details: 10 min
[3] = system: GABA transport activity; assay: [3H]GABA uptake in mouse striatal and midbrain synaptosomes; details: 10 min
[4] = midbrain synaptosomes, IB-MECA 10 nM 10 min, MRS1191 1 μM 10 min before IB-MECA, Michaelis-Menten fit, mean (n=3) ±SEM

## CCNC(=O)C1OC(n2cnc3c(N)ncnc32)C(O)C1O (stereo not shown) [NECA, 5′-N-ethyl-carboxamidoadenosine]
[1]; midbrain synaptosomes, 10 min at 37° C.
  effect on SERT activity: fails to stimulate SERT activity
[1]; midbrain synaptosomes, concentrations above 1 μM
  effect on 5-HT transport at high concentration: inhibited 5-HT transport

## N6-(3-iodobenzyl)-N-methyl-5′carbamoyladenosine [IB-MECA]
[1]; midbrain and hippocampal synaptosomes of A3AR+/+ mice, 10 nM, 10 min
  increase in 5-HT transport: 40-50%
[1]; midbrain and hippocampal synaptosomes of A3AR−/− mice, 10 nM, 10 min
  stimulation of SERT activity in A3AR−/− mice: failed to stimulate SERT activity
[1]; midbrain synaptosomes, 10 nM
  effect on SERT Vmax for 5-HT: significantly increased the SERT Vmax for 5-HT
[1]; midbrain synaptosomes, 10 nM, 10 min pretreatment
  5-HT transport at peak stimulation: 130-150 % of control levels
[1]; midbrain synaptosomes, 10 nM, post-treatment
  time at which stimulation of 5-HT uptake reached a maximum: 10 to 20 min
[1]; midbrain synaptosomes, 10 min pretreatment
  concentration at which stimulation of 5-HT transport peaked: 10 nM
[1]; [4]
  Km: 0.8 µM
  Vmax: 2544+/−281 fmol/mg protein/min
[1]; midbrain synaptosomes, exceeding 100 μM, data not shown
  effect on 5-HT uptake at high concentration: induced a decrease in 5-HT uptake
[1]; striatal synaptosomes, 10 min
  SERT activity in striatal synaptosomes: IB-MECA-insensitive SERT activity
[1]; synaptosomes, for 20 min
  concentration window for stimulation of 5-HT transport: 10 to 30 nM
[2]
  effect on DA uptake: no stimulation
[3]
  effect on GABA uptake: no stimulation

## CNCCNS(=O)(=O)c1cccc2cnccc12 [H8, N-[2-(methylamino)ethy]-5-isoquinoline-sulfonamide]
[1]; midbrain synaptosomes
  effect on IB-MECA (10 nM) stimulated 5-HT uptake: blocked IB-MECA regulation of SERT

## C[C@H](Cc1ccccc1)Nc1ncnc2c1ncn2[C@@H]1O[C@H](CO)[C@@H](O)[C@H]1O [R-PIA, (R)—N^6-phenylisopropyladenosine]
[1]; midbrain synaptosomes, 1~1000 nM, 10 min at 37° C.
  impact on 5-HT transport: No impact

## CCOC(=O)C1=C(C)NC(c2ccccc2)=C(C(=O)OCc2ccccc2)C1C#Cc1ccccc1 (racemic) [MRS1191, 3-ethyl-5-benzyl-2-methyl-phenylethynyl-6-phenyl-1,4(±)dihydropyridine-3,5-dicarboxylate]
[1]; midbrain synaptosomes
  effect on IB-MECA (10 nM) stimulated 5-HT uptake: prevented the stimulatory actions of IB-MECA on 5-HT uptake
[1]; synaptosomes, 0.01-100 μM, data not shown
  effect alone on basal 5-HT transport: did not influence basal 5-HT transport
